Earlier results on one compound are cited in patent US11213539B2, “Use of ivermectin and brimonidine in the treatment and/or prevention of moderate to severe rosacea” (GALDERMA HOLDING SA, priority 2015, dated 2022).

This series deals with patients treated with brimonidine 0.33% gel. The following applies: brimonidine used alone; in a number of patients, in particular worsening of erythema (rebound).

In the case of `Brc1c(NC2=NCCN2)ccc2nccnc12` [brimonidine], the related adverse effects result is reported as “excessive”.
